Key:
[1] = molecular target: Ret (h) (Homo sapiens, UniProt P07949); test: RET kinase activity, [γ-33P-ATP] filter assay; assay type: biochemical
Description: RET kinase is pre-diluted to a 10× working concentration prior to addition into the assay. The composition of the dilution buffer is 20 mM MOPS pH 7.0, 1 mM EDTA, 0.1% p-mercaptoethanol, 0.01% Brij-35, 5% glycerol and 1 mg/ml BSA.
The reaction is initiated by the addition of the MgATP mix. After incubation for 40 minutes at room temperature, the reaction is stopped by the addition of 5 μL of a 3% phosphoric acid solution. 10 μL of the reaction is then spotted onto a P30 filtermat and washed three times for 5 minutes in 75 mM phosphoric acid and once in methanol prior to drying and scintillation counting.

[2] = molecular target: T1, Ret (Homo sapiens, UniProt P07949); test: Ret autophosphorylation, fluorescence polarization assay; assay type: biochemical; conditions: 4 ng Ret, 5 μM ATP, 20 min; read-out: IC50 for inhibition of Ret autophosphorylation
T1 construct: purchased Upstate 14-570
T1 sequence (P07949 658-1114 limits assumed): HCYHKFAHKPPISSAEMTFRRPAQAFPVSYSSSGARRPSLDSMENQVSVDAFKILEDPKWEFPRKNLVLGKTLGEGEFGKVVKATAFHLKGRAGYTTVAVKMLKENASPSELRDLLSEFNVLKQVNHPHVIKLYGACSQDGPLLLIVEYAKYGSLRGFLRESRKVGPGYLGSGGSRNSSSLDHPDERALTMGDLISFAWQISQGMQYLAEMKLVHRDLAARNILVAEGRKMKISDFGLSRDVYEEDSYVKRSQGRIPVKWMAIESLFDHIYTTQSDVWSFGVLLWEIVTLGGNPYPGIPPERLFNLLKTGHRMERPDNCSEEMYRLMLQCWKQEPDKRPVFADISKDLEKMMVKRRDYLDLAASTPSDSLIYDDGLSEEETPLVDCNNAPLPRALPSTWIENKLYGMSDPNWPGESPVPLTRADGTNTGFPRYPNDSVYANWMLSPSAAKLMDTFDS
Description: Compounds were serially diluted in DMSO starting from 500× the desired final concentration and then diluted to 1% DMSO in kinase buffer (20 mM HEPES, pH 7.4, 5 mM MgCl2, 2 mM MnCl2, 1 mM DTT, 0.1 mg/mL acetylated BGG). Compound in 1% DMSO (0.2% DMSO final) was mixed with ATP in kinase buffer at room temperature.
Reactions were allowed to proceed at room temperature.
The plates were incubated for 30 minutes in the dark at room temperature and then read on a Polarion fluorescence polarization plate reader (Tecan).
Data were converted to amount of phosphopeptide present using a calibration curve generated by competition with the phosphopeptide competitor provided in the Tyrosine Kinase Assay Kit, Green (Invitrogen).

[3] = in vivo metabolism of prodrug to active drug
Excerpt: It has recently been discovered that a phosphate-containing prodrug according to the structure illustrated below (Compound P-1):
19, 2006 (US2006/0211657 A1), at paragraphs 134-142 and 146 of the printed publication.

[4] = in vitro metabolism of prodrug to active drug; assay type: in vitro ADME; conditions: rat plasma, rat hepatic and intestinal microsomal preparations
Excerpt: Although phosphate-containing prodrugs suitable for oral administration are of interest, skilled artisans will appreciate that prodrugs including phosphate-containing progroups R^p can be administered via other routes of administration, as phosphatases are distributed throughout the body. […] Thus, the only requirement is that the particular phosphate-containing progroup R^p selected should be removable under the conditions of intended use.

[5] = compound concentration 0.03 micromoles
[6] = compound concentration 1 micromoles
[7] = compound concentration 0.3 micromoles
[8] = compound concentration 0.02 micromoles
[9] = compound concentration 0.2 micromoles

Chain of Ret (h) (P07949 29-1114): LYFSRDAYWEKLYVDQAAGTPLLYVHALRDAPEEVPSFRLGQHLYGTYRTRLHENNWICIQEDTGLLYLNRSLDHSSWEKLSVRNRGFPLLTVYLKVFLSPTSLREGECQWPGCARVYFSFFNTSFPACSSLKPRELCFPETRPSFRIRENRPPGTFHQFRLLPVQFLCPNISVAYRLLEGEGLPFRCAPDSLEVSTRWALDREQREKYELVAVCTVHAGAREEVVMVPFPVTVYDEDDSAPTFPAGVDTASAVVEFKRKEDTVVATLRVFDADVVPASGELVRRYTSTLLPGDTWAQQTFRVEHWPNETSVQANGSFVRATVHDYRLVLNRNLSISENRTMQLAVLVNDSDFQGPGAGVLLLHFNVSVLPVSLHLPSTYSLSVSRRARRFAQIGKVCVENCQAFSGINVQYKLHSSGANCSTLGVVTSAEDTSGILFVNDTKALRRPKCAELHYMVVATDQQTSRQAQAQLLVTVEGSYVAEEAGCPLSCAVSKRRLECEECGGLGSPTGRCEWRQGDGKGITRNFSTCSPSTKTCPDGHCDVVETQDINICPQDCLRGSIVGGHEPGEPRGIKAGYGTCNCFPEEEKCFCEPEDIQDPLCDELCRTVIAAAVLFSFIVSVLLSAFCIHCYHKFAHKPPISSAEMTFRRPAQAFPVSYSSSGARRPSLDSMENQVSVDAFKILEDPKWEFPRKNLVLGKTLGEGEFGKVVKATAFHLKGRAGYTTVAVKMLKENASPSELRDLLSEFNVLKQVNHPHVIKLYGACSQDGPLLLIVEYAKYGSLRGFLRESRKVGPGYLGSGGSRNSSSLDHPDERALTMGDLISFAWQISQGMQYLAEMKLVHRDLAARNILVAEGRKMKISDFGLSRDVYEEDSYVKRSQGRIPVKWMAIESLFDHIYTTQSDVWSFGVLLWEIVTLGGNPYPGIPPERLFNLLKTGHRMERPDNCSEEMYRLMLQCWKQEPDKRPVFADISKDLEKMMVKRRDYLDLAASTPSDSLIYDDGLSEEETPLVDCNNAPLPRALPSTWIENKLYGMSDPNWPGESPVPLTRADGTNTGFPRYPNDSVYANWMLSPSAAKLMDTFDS

Compound	RET kinase autophosphorylation activity as a percentage of control RET kinase activity [1, 6] [%]	IC50 [2] [nM]	RET kinase autophosphorylation activity as a percentage of control RET kinase activity [1, 9] [%]	further results
2-(3-(4-(2,2-difluoro-3-oxo-3,4-dihydro-2H-pyrido[3,2-b][1,4]oxazin-6-ylamino)-5-fluoropyrimidin-2-ylamino)phenoxy)-N-methylacetamide [Compound 2]	0	11.8		RET kinase autophosphorylation activity as a percentage of control RET kinase activity [1, 5]: 0%; RET kinase autophosphorylation activity as a percentage of control RET kinase activity ([1]; compound concentration 3 micromoles): 0%
Cc1nc2ccc(Nc3ncc(F)c(Nc4ccc5c(c4)NC(=O)C(C)(C)S5)n3)cc2[nH]1 [Compound 3, 6-(5-fluoro-2-(2-methyl-1H-benzo[d]imidazol-6-ylamino)pyrimidin-4-ylamino)-2,3-dimethyl-2H-benzo[b][1,4]thiazin-3(4H)-one]		16.5		
COc1cc(Nc2ncc(F)c(Nc3ccc4c(n3)NC(=O)C(C)(C)O4)n2)cc(O)c1OC [Compound 4, 6-(5-fluoro-2-(3-hydroxy-4,5-dimethoxy-phenylamino)pyrimidin-4-ylamino)-2,2-dimethyl-2H-pyrido[3,2-b][1,4]oxazin-3(4H)-one]		7.3		
Cc1noc(COc2ccc(Nc3nc(Nc4cccc(O)c4)ncc3F)cc2)n1 [Compound 5, 3-(5-fluoro-4-(4-((3-methyl-1,2,4-oxadiazol-5-yl)methoxy)phenylamino)pyrimidin-2-ylamino)phenol]	0			RET kinase autophosphorylation activity as a percentage of control RET kinase activity ([1]; compound concentration 0.01 micromoles): 0%; RET kinase autophosphorylation activity as a percentage of control RET kinase activity [1, 5]: 0%; RET kinase autophosphorylation activity as a percentage of control RET kinase activity ([1]; compound concentration 0.1 micromoles): 0%; RET kinase autophosphorylation activity as a percentage of control RET kinase activity [1, 7]: 0%
Cc1cc(Nc2cc(N3CCN(C)CC3)nc(Sc3ccc(NC(=O)C4CC4)cc3)n2)[nH]n1 [Compound 6, N-(4-(4-(3-methyl-1H-pyrazol-5-ylamino)-6-(4-methylpiperazin-1-yl)pyrimidin-2-ylthio)phenyl)cyclopropanecarboxamide]	4		26	RET kinase autophosphorylation activity as a percentage of control RET kinase activity [1, 8]: 78%
Cc1cc(Nc2ncc(F)c(NC3CCCC3C(N)=O)n2)ccc1N1CCN(C)CC1 (centres unmarked) [Compound 7, 2-(5-fluoro-2-(3-methyl-4-(4-methylpiperazin-1-yl)phenylamino)pyrimidin-4-ylamino)cyclo-pentanecarboxamide]	2		34	RET kinase autophosphorylation activity as a percentage of control RET kinase activity [1, 8]: 74%
COc1cc(Nc2ncc(F)c(Nc3ccc4c(n3)N(COP(=O)(O)O)C(=O)C(C)(C)O4)n2)cc(OC)c1OC [Compound 9, (6-(5-fluoro-2-(3,4,5-trimethoxyphenylamino)pyrimidin-4-ylamino)-2,2-dimethyl-3-oxo-2H-pyrido[3,2-b][1,4]oxazin-4(3H)-yl)methyldihydrogenphosphate]	11			RET kinase autophosphorylation activity as a percentage of control RET kinase activity [1, 7]: 47%; metabolism of prodrug to the active drug Compound 1 [3]: metabolizes in vivo to the corresponding active 2,4-pyrimidinediamine compound; metabolism of prodrug to the active drug Compound 1 [4]: metabolize to the active drug Compound 1
Cc1ccc(Nc2ncc(F)c(Nc3ccc(OCC#N)cc3)n2)cc1S(N)(=O)=O [Compound 10]	1		19	

Source: patent US20090012045A1, “Methods of Treating Cell Proliferative Disorders” (RIGEL PHARMACEUTICALS, INC., priority 2007, published 2009)
